Holding throughout (experiment): inhibition of tumour cell growth, NCI panel, 48 h
Experiment [1] relates to COLO 205 colon.
The subject of experiment [2] is HCT-116 colon.
Experiment [3] concerns HT29 colon.
Experiment [4] has as its system IGROV1 ovarian.
Experiment [5] deals with NCI-H460 lung.
Experiment [6] concerns OVCAR-3 ovarian.
The test system of experiment [7] is OVCAR-4 ovarian.
Experiment [8] concerns SF-295 CNS.
Experiment [9] concerns SF-539 CNS.
The test system of experiment [10] is SK-OV-3 ovarian.
Experiment [11] concerns T-47D breast.

SMILES strings stand for the structures. “And” between values parts separate entries of the source, which are not always exact repeats. Equal values may be shown once.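 Results reflect a 48-hour exposure of cells in 96-well plates to compound at five concentrations. GI50 = concentration required for 50% inhibition of growth. TGI is the concentration that stops growth completely.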 Where a SMILES comes first, the peptide text is derived from it. The star is where a group is joined. Cbz = O=C(OCc1ccccc1)*

`NC(=O)N(O)c1cccc(Br)c1`: the TGI in experiment [1], in [2], in experiment [3], in [4], in experiment [5] and in experiment [6] was over 100 µM in each case. Also, the TGI in experiment [7], in [8], in [9], in experiment [10] and in experiment [11] was over 100 µM throughout.
`c1ccc(-c2cc(-c3cc(-c4ccccc4)n(-c4ccccc4)n3)nn2-c2ccccc2)cc1`: the TGI in experiment [1], in experiment [2], in experiment [3], in experiment [4], in experiment [5] and in [6] was over 100 µM in each case. The TGI in experiment [7], in [8], in [9], in experiment [10] and in experiment [11] was over 100 µM each time.
Consider `O=C(/C=C/c1ccc(O)c(O)c1)OCCOC(=O)/C=C/c1ccc(O)c(O)c1`, for which the TGI in experiment [1] is 42.3 µM; in experiment [2] it was 46.7 µM; in [3] it was 43.4 µM; in experiment [4], over 100 µM; in experiment [5], over 100 µM; in [6], 39 µM. For the same compound, the TGI in [7] is over 100 µM; in experiment [8], 44.1 µM; in experiment [9] it was 52.6 µM; in experiment [10], 55.5 µM; in [11], 51.2 µM.
As for `O=C1c2cc(CCl)sc2C(=O)c2ccsc21`, the TGI in experiment [1] turned out to be 2.68 µM; in experiment [2] it was 0.39 µM; in experiment [3] it was 2.56 µM; in [4] it was 2.83 µM; in [5], 2.63 µM; in experiment [6], 0.52 µM. Moreover, the TGI in experiment [7] came out at 0.336 µM; in experiment [8], 0.245 µM; in experiment [9] it was 0.553 µM; in [10], 3.36 µM; in experiment [11] it was 0.562 µM.
`COC/C=C\[C@@]1(O)CCCC[C@@H]1CC(OC)OC`: the TGI in experiment [1] is over 100 µM; in [2], over 62.7 µM; in experiment [3] it was over 100 µM; in experiment [4], over 55.6 µM; in experiment [5], over 90 µM; in experiment [6] it was over 100 µM. Also, the TGI is over 76.4 µM in experiment [7]; 97.3 µM in experiment [8]; over 100 µM in experiment [9]; over 100 µM in [10]; over 100 µM in [11].
As to `Nc1c(C(=O)c2ccccc2)[nH]c(NCc2ccccc2)c1C(=S)Nc1ccccc1`, the TGI in experiment [1], in experiment [2], in experiment [3], in experiment [4], in [5] and in experiment [6] was over 100 µM each time. Further, the TGI in [7], in experiment [8], in experiment [9], in experiment [10] and in experiment [11] was over 100 µM each time.
With `O/N=C\c1cc(O)c(O)c(/C=N/O)c1`, the TGI in experiment [1], in experiment [2], in experiment [3], in [4], in experiment [5] and in experiment [6] was over 100 µM in each case. The TGI in experiment [7], in [8], in [9], in [10] and in experiment [11] was over 100 µM throughout.
On to `COC(=O)CCCCC/C(=C\C(=O)C(Cl)(Cl)Cl)OC`, for which the TGI is 57.7 µM in experiment [1]; 49.6 µM in experiment [2]; 72.6 µM in experiment [3]; 32.2 µM in experiment [4]; 76.9 µM in experiment [5]; 70.4 µM in experiment [6]. In addition, the TGI in [7] is 42.1 µM; in experiment [8], over 100 µM; in experiment [9], 44.4 µM; in [10], over 100 µM; in experiment [11], over 100 µM.
On to `CN1CCN(c2ccc3[nH]c(C4=C(O)c5nc(CO)n(C)c5C(=O)C4=O)nc3n2)CC1`, for which the TGI in experiment [1], in experiment [2], in experiment [3], in [4], in experiment [5] and in [6] was over 100 µM in each case. In addition, the TGI in experiment [7], in [8], in experiment [9], in experiment [10] and in experiment [11] was over 100 µM throughout.
Regarding `CCC(=O)NCCc1c[nH]c2ccc(OC)cc12`, the TGI in [1], in experiment [2], in experiment [3], in experiment [4], in [5] and in [6] was over 100 µM each time. The TGI in experiment [7], in experiment [8], in experiment [9], in experiment [10] and in experiment [11] was over 100 µM in each case.
With `COC(=O)C1=C(C)NC(C)=C([N+](=O)[O-])C1c1cccc(NO)c1` (configuration not stated), the TGI in experiment [1] worked out at 4.74 µM; in [2], 10.5 µM; in [3], 9.79 µM; in experiment [4] it was 22.9 µM; in experiment [5], 17.5 µM; in experiment [6] it was 19.5 µM. The TGI in experiment [7] is 40.6 µM; in experiment [8], 23.1 µM; in experiment [9], 37 µM; in experiment [10], over 85.6 µM; in [11], over 52.4 µM.
With `O=C1c2ccccc2C(=O)N1c1ccc(OCCN2CCCCC2)cc1`, the TGI in [1], in experiment [2], in experiment [3], in experiment [4], in experiment [5] and in experiment [6] was over 100 µM in each case. In addition, the TGI in experiment [7], in experiment [8], in experiment [9], in [10] and in [11] was over 100 µM each time.
As to `CC(Cc1ccc(O)c(O)c1)C(C)Cc1ccc(O)c(O)c1` (configuration not stated), the TGI came out at 35.9 µM in [1]; 34.2 µM in experiment [2]; 51.5 µM in experiment [3]; 33.6 µM in [4]; 35 µM in experiment [5]; 27.4 µM in [6]. Also, the TGI in experiment [7] stood at 29.5 µM; in experiment [8] it was 43 µM; in [9], 33.9 µM; in experiment [10] it was 84 µM; in experiment [11], 41.2 µM.
With `O=C(NC(Nc1ccc(F)c(Cl)c1)(C(F)(F)F)C(F)(F)F)C(C(F)(F)F)C(F)(F)F`, the TGI is 74.4 µM in experiment [1]; 41.7 µM in experiment [2]; 67.9 µM in [3]; 33.4 µM in [4]; over 100 µM in experiment [5]; over 100 µM in experiment [6]. Moreover, the TGI in [7] was 88.9 µM; in [8] it was over 100 µM; in experiment [9], 48.7 µM; in experiment [10] it was over 100 µM; in experiment [11] it was over 100 µM.
As to `CCOC(=O)C(C)NC(=O)C(C)NC(=O)C(C)NC(=O)C(C)NC(=O)C(C)NC(=O)C(C)NC(=O)C(C)NC(=O)OCc1ccccc1` (configuration not stated) (Cbz-AAAAAAA-OEt; configuration not given here), the TGI in experiment [1], in experiment [2], in [3], in [4], in [5] and in experiment [6] was over 100 µM throughout. The TGI in experiment [7], in [8], in experiment [9], in [10] and in experiment [11] was over 100 µM throughout.
As to `C[N+]1(C)CN(c2ccccc2)C2(CCN(CCCC(=O)c3cccs3)CC2)C1=O`, the TGI in [1], in experiment [2], in [3], in experiment [4], in experiment [5] and in experiment [6] was over 100 µM each time. The TGI in experiment [7], in experiment [8], in [9], in experiment [10] and in experiment [11] was over 100 µM each time.
For the compound `O=C(O)CCC1(c2ccccc2)NC(=O)NC1=O` (configuration not stated), the TGI in experiment [1], in [2], in experiment [3], in [4], in [5] and in experiment [6] was over 100 µM throughout. The TGI in experiment [7], in experiment [8], in [9], in experiment [10] and in experiment [11] was over 100 µM each time.
With `CC/C(Cl)=N\OC(=O)Nc1ccc(C#N)cc1`, the TGI stood at 3.3 µM in [1]; 28.1 µM in experiment [2]; 36.9 µM in [3]; 30.6 µM in experiment [4]; 36.2 µM in experiment [5]; 32.7 µM in [6]. In addition, the TGI is 23.6 µM in experiment [7]; 33 µM in [8]; 30.5 µM in experiment [9]; 22.3 µM in experiment [10]; 30.7 µM in experiment [11].
On to `CCOC(=O)c1nc2cc(C(F)(F)F)ccc2nc1Nc1ccc(Cl)c(Cl)c1`, for which the TGI in experiment [1], in experiment [2], in [3], in experiment [4], in experiment [5] and in experiment [6] was over 100 µM in each case. The TGI in experiment [7], in experiment [8], in experiment [9], in [10] and in experiment [11] was over 100 µM throughout.
For the compound `Cc1cccc2c1C(=O)C(C1OC(=O)c3ccccc31)C2` (configuration not stated), the TGI in experiment [1], in experiment [2], in [3], in experiment [4], in experiment [5] and in experiment [6] was over 100 µM throughout. Also, the TGI in [7], in experiment [8], in experiment [9], in [10] and in experiment [11] was over 100 µM each time.
As to `Cc1ccc(C2=Nc3c(N)nc(N)nc3NC(c3ccccc3)C2)cc1` (configuration not stated), the GI50 is 5.21 µM and 11.4 µM in [1]; 4.9 µM and 10.5 µM in experiment [8]. For the same compound, the TGI was 14 µM and 25.3 µM in experiment [1]; 17.5 µM and 17.6 µM in [2]; 14.1 µM and 14.8 µM in experiment [3]; 21.2 µM and 21.6 µM in [4]; 28.3 µM in experiment [5]; 24.8 µM and 24.9 µM in experiment [6]. Besides, the TGI is 27.6 µM and 29.9 µM in experiment [7]; 17.9 µM and 23.8 µM in experiment [8]; 25.3 µM in experiment [9]; 27.1 µM and 27.6 µM in [10]; 28.2 µM and 32.6 µM in [11].
In the case of `O=C1OC(CN2CCN(c3ccccc3)CC2)CN1C(=S)Nc1ccccc1` (configuration not stated), the TGI in [1], in [2], in experiment [3], in [4], in [5] and in experiment [6] was over 100 µM throughout. Moreover, the TGI in [7], in experiment [8], in experiment [9], in experiment [10] and in experiment [11] was over 100 µM in each case.
Turning to `CC(C)(C)C=C=C(C(C)(C)C)P(=O)(O)O`, the TGI in experiment [1], in experiment [2], in experiment [3], in experiment [4], in experiment [5] and in experiment [6] was over 100 µM in each case. The TGI in experiment [7], in [8], in [9], in experiment [10] and in experiment [11] was over 100 µM in each case.
In the case of `CN(/N=C\c1ccc2ccccc2c1)C1=NCCCCN1`, the TGI in experiment [1] is 35.3 µM; in experiment [2], over 100 µM; in experiment [3], 38.2 µM; in [4], over 100 µM; in [5] it was 39.7 µM; in [6], over 100 µM. The TGI in experiment [7] is over 100 µM; in experiment [8] it was 33.5 µM; in experiment [9], 48.6 µM; in [10], over 100 µM; in [11], over 100 µM.
In the case of `O=C(C1OC1c1ccc([N+](=O)[O-])cc1)C12CC3CC(CC(C3)C1)C2` (configuration not stated), the TGI turned out to be 35.4 µM in experiment [1]; 22 µM in experiment [2]; 47.7 µM in [3]; 34.6 µM in [4]; 28.5 µM in experiment [5]; 27 µM in experiment [6]. Moreover, the TGI in experiment [7] came to 38.9 µM; in [8] it was 30.8 µM; in experiment [9], 28.9 µM; in experiment [10], 49.6 µM; in experiment [11] it was 37.3 µM.

For the origin of these results see PubChem BioAssay (NCI).
